The source of these data is ChEMBL document CHEMBL1139693, “Structure-based design of a novel thiazolone scaffold as HCV NS5B polymerase allosteric inhibitors” (Bioorg Med Chem Lett, 2006).

This assay is described as follows: Inhibition of HCV NS5B polymerase. Also on record: species or system Hepacivirus hominis.

As usually defined, the IC50 is the concentration that gives 50% inhibition. Turning to `Cc1ccc(S(=O)(=O)NC2=NC(=O)/C(=C/c3ccc(C)o3)S2)cc1`, the IC50 worked out at 2000 nM.
